The text below walks through data of patent publication US20030181374A1, “Methods and compositions for stimulating bone growth using inhibitors of microtubule assembly” (priority 2002, published 2003).

Marks after values point to notes of the source that are not given here. Where a SMILES comes first, the peptide text is derived from it. The star is where a group is joined. Cbz = O=C(OCc1ccccc1)*; OtBu = CC(C)(C)O*

In assay [1] the test system is Calvariae of one-month-old ICR Swiss mice. As to the kind of experiment: New bone formation on calvariae (new bone width by histomorphometry). The format is in vivo. The following applies: x2d, mean ± SE, n=5. As for the experimental part: (§1) Male ICR Swiss white mice, aged 4-6 weeks and weighing 13-26 gm, are employed, using 4-5 mice per group. The calvarial bone growth assay is performed as described in PCT application WO95/24211, incorporated by reference. Briefly, the test compound or appropriate control vehicle is injected into the subcutaneous tissue over the right calvaria of normal mice. Typically, the control vehicle is the vehicle in which the compound was solubilized, and is PBS containing 5% DMSO or is PBS containing Tween (2 μl/10 ml). The animals are sacrificed on day 14 and bone growth measured by histomorphometry. Bone samples for quantitation are cleaned from adjacent tissues and fixed in 10% buffered formalin for 24-48 hours, decalcified in 14% EDTA for 1-3 weeks, processed through graded alcohols; and embedded in paraffin wax. Three to five μm sections of the calvaria are prepared, and representative sections are selected for histomorphometric assessment of the effects on bone formation and bone resorption. Sections are measured by using a camera lucida attachment to trace directly the microscopic image onto a digitizing plate. Bone changes are measured on sections cut 200 μm apart, over 4 adjacent 1×1 mm fields on both the injected and noninjected sides of the calvaria. New bone is identified by its characteristic woven structure, and osteoclasts and osteoblasts are identified by their distinctive morphology. Histomorphometry software (OsteoMeasure, Osteometrix, Inc., Atlanta) is used to process digitizer input to determine cell counts and measure areas or perimeters.
as §1, with “In more detail, male” for “Male”, “above.” for “in PCT application WO95/24211, incorporated by reference.”
Selected compounds and appropriate controls were assayed in vitro (ex vivo) for bone formation activity (described above in “Techniques for Neonatal Mouse Calvaria Assay (in vitro)). Histomorphometrical assessments of ex vivo calvaria were carried out using an OsteoMetrics bone morphometry measurement program, according to the manufacturer's instructions. Measurements were determined using either a 10- or 20-fold objective with a standard point counting eyepiece graticule.
New bone formation was determined (using a 10× objective) by measuring the new bone area formed in one field in 3 representative sections of each bone (4 bones per group). Each measurement was carried out ½ field distance from the end of the suture. Both total bone and old bone area were measured. Data were expressed as new bone width in mm.

For a further assay, the system named is ICR Swiss mice. Description: Bone volume and bone formation rates in ICR Swiss mice. The format is in vivo. The conditions noted are these: n=10. As for the experimental part: Briefly, test compound, positive control compound, PBS, or vehicle alone is administered subcutaneously once per day for 35 days. All animals are injected with calcein nine days and two days before sacrifice (two injections of calcein administered each designated day). Weekly body weights are determined. At the end of the 35-day cycle, the animals are weighed and bled by orbital or cardiac puncture. Serum calcium, phosphate, osteocalcin, and CBCs are determined. Both leg bones (femur and tibia) and lumbar vertebrae are removed, cleaned of adhering soft tissue, and stored in 70% ethanol for evaluation, as performed by peripheral quantitative computed tomography (pQCT; Ferretti, J., Bone (1995) 17:353S-64S), dual energy X-ray absorptiometry (DEXA; Laval-Jeantet A., et al., Calcif Tissue Intl (1995) 56:14-18; J. Casez, et al., Bone and Mineral (1994) 26:61-68) and/or histomorphometry. The effect of test compounds on bone remodeling can thus be evaluated.
Microtubule Inhibitor TN-16 Increases Bone Volume and Bone Formation Rates in ICR Swiss Mice.

The subject of a further assay is BMP2 promoter-Luc. As to the kind of experiment: High throughput screening: BMP2 promoter-luciferase reporter in 2T3-BMP-2-LUC osteoblast cells. The conditions noted are these: 2T3 cells, mean ± SE, n=4. Type of assay: cell-based, mouse. From the text: 2, 1995, the entire contents of which are incorporated herein by reference. This assay is also described as a portion of a study of immortalized murine osteoblasts (derived from a mouse expressing a transgene composed of a BMP2 promoter driving expression of T-antigen) in Ghosh-Choudhery, N., et al., Endocrinology (1996) 137:331-39. In this study, the immortalized cells were stably transfected with a plasmid containing a luciferase reporter gene driven by a mouse BMP2 promoter (˜2736/114 bp), and responded in a dose-dependent manner to recombinant human BMP2.
Briefly, the assay utilizes cells transformed permanently or transiently with constructs in which the promoter of a bone morphogenetic protein, specifically BMP2 or BMP4, is coupled to a reporter gene, typically luciferase. These transformed cells are then evaluated for the production of the reporter gene product; compounds that activate the BMP promoter will drive production of the reporter protein, which can be readily assayed. Many thousands of compounds have been subjected to this rapid screening technique, and only a very small percentage are able to elicit a level of expression of reporter gene 5-fold greater than that produced by vehicle. […] The active compounds (“BMP promoter-active compounds” or “active compounds”) are useful in promoting bone or cartilage growth, and thus in the treatment of vertebrates in need of bone or cartilage growth.
In more detail, the 2T3-BMP-2-LUC cells, a stably transformed osteoblast cell line described in Ghosh-Choudhury et al. Endocrinology (1996) 137:331-39, referenced above, was employed. The cells were cultured using α-MEM, 10% FCS with 1% penicillin/streptomycin and 1% glutamine (“plating medium”), and were split 1:5 once per week. For the assay, the cells were resuspended in a plating medium containing 4% FCS, plated in microtiter plates at a concentration of 5×10^3 cells (in 50 μl)/well, and incubated for 24 hours at 37° C. in 5% CO2. To initiate the assay, 50 μl of the test compound or the control in DMSO was added at 2× concentration to each well, so that the final volume was 100 μl. The final serum concentration was 2% FCS, and the final DMSO concentration was 1%. Compound 59-0008 (10 μM) was used as a positive control.
The treated cells were incubated for 24 hours at 37° C. and 5% CO2. The medium was then removed, and the cells were rinsed three times with PBS. After removal of excess PBS, 25 μl of 1× cell culture lysing reagent (Promega #E153A) was added to each well and incubated for at least ten minutes. Optionally, the plates/samples could be frozen at this point. To each well was added 50 μl of luciferase substrate (Promega #E152A; 10 ml Promega luciferase assay buffer per 7 mg Promega luciferase assay substrate). Luminescence was measured on an automated 96-well luminometer, and was expressed as either picograms of luciferase activity per well or as picograms of luciferase activity per microgram of protein, as provided below, using TN-16 as the test compound.
Background: In a reporter assay the amount or activity of a reporter protein is the signal.

Another assay has as its system mice. Description: In vivo assay for bone mineral density. The conditions noted are these: x2d, mean ± SE, n=10.

Consider `COc1cc2c(c(OC)c1OC)-c1ccc(OC)c(=O)cc1C(NC(C)=O)CC2` (stereo not drawn) [Colchicine, N-(5,6,7,9-Tetrahydro-1,2,3,10-tetra-methoxy-9-oxobenzo[a]heptalen-7-yl) acetamide], for which the figures for the “New Bone Width” value in assay [1] (0.1 mg/kg/d) and in assay [1] (1.0 mg/kg/d) were 0.225 ± 0.013 mm and 0.305 ± 0.020 mm, respectively.

Take `CCC(C)C(NC(=O)OCc1ccccc1)C(=O)NC(CCC(=O)OC(C)(C)C)C(=O)NC(C)C(=O)NC(C=O)CC(C)C` (stereo not drawn) [Ps-1] (Cbz-IE(OtBu)AL-aldehyde; configuration not given here): in the assay on ICR Swiss mice (1 mg/kg/d, x5, mean ± SE), the “Bone Formation Rate: BFR/BS” value is 1.766 ± 0.425* μm^3/μm^2/day and the “Bone Volume (%, BV/TV)” value worked out at 27.13 ± 1.51 %.

`COC(=O)Nc1nc2cc(C(=O)c3cccs3)ccc2[nH]1` [Nocodazole, Methyl-[5-(2-thienylcarbonyl)-1 H-benzimidazole-2-yl]-carbamate]: the “New Bone Width” value in assay [1] (1.5 mg/kg/d) was found to be 0.231 ± 0.027 mm.

Take `CC(Nc1ccccc1)=C1C(=O)NC(Cc2ccccc2)C1=O` (stereo not drawn) [TN-16, 3-(1-Anilinoethylidene)-5-benzylpyrrolidine-2,4-dione]: the entries for the “New Bone Width” value in assay [1] (2 mg/kg/d), in assay [1] (4 mg/kg/d) and in assay [1] (8 mg/kg/d) were 0.120 ± 0.016 mm, 0.376 ± 0.029 mm and 0.525 ± 0.035 mm, respectively. For the same compound, the “Luciferase Activity (Fold Change) (BMP2 promoter-Luc)” value in the assay with BMP2 promoter-Luc (TN-16 0.16 μM) is on record as 2.4 ± 0.40 Fold Change; with BMP2 promoter-Luc (TN-16 0.31 μM), 4.0 ± 0.09 Fold Change; with BMP2 promoter-Luc (TN-16 0.61 μM), 4.8 ± 0.50 Fold Change; with BMP2 promoter-Luc (TN-16 1.25 μM), 5.6 ± 0.12 Fold Change; in the assay on BMP2 promoter-Luc (TN-16 2.5 μM), 6.2 ± 0.30 Fold Change. Further, the “Bone Formation Rate: BFR/BS” value with ICR Swiss mice (2 mg/kg/d, x2, mean ± SE) is 0.815 ± 0.129* μm^3/μm^2/day; in the assay on ICR Swiss mice (4 mg/kg/d, x2, mean ± SE) it was 1.130 ± 0.293* μm^3/μm^2/day; in the assay with ICR Swiss mice (8 mg/kg/d, x2, mean ± SE), 1.231 ± 0.181** μm^3/μm^2/day. In addition, the “Bone Volume (%, BV/TV)” value is 23.42 ± 3.13 % in the assay with ICR Swiss mice (2 mg/kg/d, x2, mean ± SE); 27.21 ± 2.14 % with ICR Swiss mice (4 mg/kg/d, x2, mean ± SE); 25.44 ± 1.29 % with ICR Swiss mice (8 mg/kg/d, x2, mean ± SE). The BMD came out at 26.0 ± 0.7 mg/cm^2 in the assay on mice (Calvariae (1-month-old mice), 4 mg/kg/d); 31.3 ± 0.5 mg/cm^2 with mice (Calvariae (1-month-old mice), 8 mg/kg/d); 90.1 ± 2.2 mg/cm^2 with mice (Femora (3-month-old mice), 2 mg/kg/d); 100.9 ± 1.6 mg/cm^2 in the assay on mice (Femora (3-month-old mice), 4 mg/kg/d); 102.1 ± 1.5 mg/cm^2 in the assay on mice (Femora (3-month-old mice), 8 mg/kg/d); 78.0 ± 2.2 mg/cm^2 in the assay with mice (Tibiae (3-month-old mice), 2 mg/kg/d). The BMD with mice (Tibiae (3-month-old mice), 4 mg/kg/d) was found to be 84.5 ± 1.0 mg/cm^2; in the assay with mice (Tibiae (3-month-old mice), 8 mg/kg/d) it was 85.5 ± 0.8 mg/cm^2.
